Paper PMC6521598, “Identification of GLPG/ABBV-2737, a Novel Class of Corrector, Which Exerts Functional Synergy With Other CFTR Modulators” (Frontiers in Pharmacology, 2019)

Columns and labels:
Format in all cases: cell-based
Parameters in all cases: University of North Carolina; host or cells: primary human bronchial epithelial cells, F508del/F508del donors
F508del CFTR [1] = target: T1, F508del CFTR (Homo sapiens, UniProt P13569, DEL508-508); assay: CSE-HRP assay (cell surface expression horseradish peroxidase assay); conditions: 24 h treatment; for % F508del PM Expression vs control: VX809 rescue = 100%
T1 sequence (P13569 with tags, fused parts or gaps DEL508-508): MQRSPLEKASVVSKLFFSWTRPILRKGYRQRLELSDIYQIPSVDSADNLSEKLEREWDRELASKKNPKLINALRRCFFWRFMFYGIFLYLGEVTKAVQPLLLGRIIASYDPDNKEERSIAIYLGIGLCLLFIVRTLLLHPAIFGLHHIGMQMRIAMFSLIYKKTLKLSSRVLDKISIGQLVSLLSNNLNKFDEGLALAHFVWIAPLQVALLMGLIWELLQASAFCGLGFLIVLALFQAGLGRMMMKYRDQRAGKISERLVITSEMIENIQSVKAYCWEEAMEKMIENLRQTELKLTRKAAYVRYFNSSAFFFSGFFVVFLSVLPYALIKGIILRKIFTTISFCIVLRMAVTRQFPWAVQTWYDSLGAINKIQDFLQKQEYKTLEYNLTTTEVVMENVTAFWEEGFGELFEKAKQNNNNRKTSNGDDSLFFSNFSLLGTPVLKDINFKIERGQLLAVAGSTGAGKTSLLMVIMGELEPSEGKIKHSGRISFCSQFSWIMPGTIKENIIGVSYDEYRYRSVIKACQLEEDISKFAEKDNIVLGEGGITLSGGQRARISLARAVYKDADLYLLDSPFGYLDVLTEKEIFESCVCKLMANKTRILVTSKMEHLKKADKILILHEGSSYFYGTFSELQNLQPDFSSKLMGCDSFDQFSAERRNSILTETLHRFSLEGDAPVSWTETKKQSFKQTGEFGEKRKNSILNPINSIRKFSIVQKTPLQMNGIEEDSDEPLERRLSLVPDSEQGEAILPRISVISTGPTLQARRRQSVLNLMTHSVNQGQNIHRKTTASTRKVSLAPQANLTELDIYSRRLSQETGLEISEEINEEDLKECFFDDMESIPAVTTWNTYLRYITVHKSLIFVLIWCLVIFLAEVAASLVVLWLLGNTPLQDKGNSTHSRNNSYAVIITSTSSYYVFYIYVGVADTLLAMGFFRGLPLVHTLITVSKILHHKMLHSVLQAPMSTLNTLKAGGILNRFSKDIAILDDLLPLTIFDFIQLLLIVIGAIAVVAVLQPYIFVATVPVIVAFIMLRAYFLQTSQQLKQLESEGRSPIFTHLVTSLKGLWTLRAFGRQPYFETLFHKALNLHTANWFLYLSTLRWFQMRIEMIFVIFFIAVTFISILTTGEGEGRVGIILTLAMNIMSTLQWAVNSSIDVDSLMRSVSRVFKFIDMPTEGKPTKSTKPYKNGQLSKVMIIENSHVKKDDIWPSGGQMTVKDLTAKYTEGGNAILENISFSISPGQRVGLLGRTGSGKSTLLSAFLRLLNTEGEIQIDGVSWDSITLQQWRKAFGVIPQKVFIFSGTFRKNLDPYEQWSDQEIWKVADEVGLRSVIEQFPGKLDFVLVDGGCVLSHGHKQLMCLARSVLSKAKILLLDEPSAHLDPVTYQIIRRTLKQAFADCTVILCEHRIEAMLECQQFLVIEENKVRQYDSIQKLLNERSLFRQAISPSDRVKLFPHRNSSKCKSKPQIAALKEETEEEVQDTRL
Protocol: CFBE41o^- TetON cells expressing HRP tagged F508del-CFTR ([Veit et al., 2012]) were seeded at a density of 2000 cells per well in white 384-well plates (Greiner). Medium containing 500 ng/ml doxycycline was used to induce expression of the F508del-CFTR–HRP construct. After 3 days, cells were treated with corrector and/or potentiator compounds and transferred to an incubator at 33°C. On day 4, cells were washed five times with PBS containing Ca^2+ and Mg^2+ using a Bio-Tek plate washer and incubated with a chemiluminescent HRP substrate (SuperSignal West Pico Chemiluminescent Substrate, Thermo Scientific) for 15 min. Chemiluminescence was measured using an Envision plate reader (Perkin Elmer).
(§1) To discover novel correctors several high throughput screening campaigns were performed using cell based assays measuring plasma membrane expression of the F508del CFTR protein. The CSE-HRP system used CFBE41O-cells, a lung epithelial cell line, stably transfected with F508del CFTR tagged with HRP in the fourth extracellular loop ([Veit et al., 2014]). The CSE-MEM system, used U2OS cells, an osteosarcoma epithelial cell line, stably transfected with F508del CFTR tagged with a Pro-link moiety at the C-terminal and a plasma membrane located EA (enzyme acceptor) moiety. The latter cells were created by DiscoverX and the assay further optimized to allow robust evaluation in a high throughput manner.
For screening, cells were pre-incubated with compound for 24 h prior to read-out to allow sufficient time for de novo synthesis, and cellular trafficking of F508del-CFTR to reach steady state levels at the plasma membrane. A diverse set of 105,000 small molecules was screened in both cell assays in presence and absence of a fixed concentration (3 μM) of VX809. For the identification of suitable starting points we primarily focused on hits that increased the F508del CFTR surface expression under all conditions as exemplified by compound HIT1.

F508del CFTR [2] = target: T1, F508del CFTR; assay: Western blot (Band B/C) in CSE-MEM cells; conditions: 24 h, compound alone
Protocol: For Western blot, U2OS EA-MEM F508del CFTR (CSE-MEM) cells were seeded in six well plates at a density of 2.5e6 cells/well on day 1 and incubated at 37°C and 5% CO2. Cells were treated with corrector compounds on day 2 and were lysed 24 h later. For the lysis, cells were washed with 1 ml PBS and incubated with 300 μl cell dissociation solution/well (Sigma, Cat No. C5789-100ML) for 15 min at 37°C and 5% CO2. Medium was collected and centrifuged for 5 min at 1,000 rpm and the supernatant removed. The pellet was re-suspended for 30 min on ice in the lysis buffer containing 1% NP-40, 0.5% sodium deoxycholate, 200 mM NaCl, 10 mM Tris pH 7.8, 1 mM EDTA and a protease inhibitor cocktail tablet from Roche (Cat No. 11873580001). For gel electrophoresis, 2.5 μl 10X Nupage reducing agent (Invitrogen, Cat No. NP0004) and 6 μl 4X Nupage sample buffer (Invitrogen, Cat No. NP0007) were added to 17 μl lysate and incubated for 15 min at 37°C. […]

F508del CFTR [3] = target: T1, F508del CFTR; assay: CSE-MEM assay (cell surface expression DiscoverX assay); conditions: 24 h treatment; for % F508del PM Expression vs control: VX809 rescue = 100%
Protocol: Twenty-five microliters of cell plating reagent 5 (DiscoverX, 93-0563R5A) containing 5000 U2OS EA-MEM F508del_CFTR cells per well was added in white 384 well plates (Greiner, 781080) on day 1 and incubated overnight at 37°C, 5% CO2. On day 2, medium was refreshed and compounds (1 μl of 26 × concentrated solution) were added to the cells. All compounds used during the experiment were first dissolved in DMSO to a 10 mM solution which was then diluted to a 26 × solution in the medium just prior to the experiment. Cells were incubated with compounds for 20–24 h at 37°C, 5% CO2. On day 3, the plates were first incubated at room temperature for 1 h. After 1 h the plates were washed two times with PBS +/+ (Gibco, 14040-091) and 30 μL PBS +/+ (Gibco, 14040-091) was added after the last wash step. Then 15 μL of substrate (DiscoverX, 93-0247: 1 part Flash cell assay buffer + 4 parts Flash substrate) was added per well. After 1 h of incubation at room temperature in the dark, the luminescence signal was read on an EnVision plate reader (PerkinElmer).
as §1
For screening, cells were pre-incubated with compound for 24 h prior to read-out to allow sufficient time for de novo synthesis, and cellular trafficking of F508del-CFTR to reach steady state levels at the plasma membrane. […]

## COC1CCN(C2CCN(c3cc(C(=O)NS(=O)(=O)N(C)C)nc4c3c(C3CCC3)nn4-c3ccc(F)cc3)CC2)CC1 [GLPG2737]
F508del CFTR [1]; + 3 μM VX809
  % F508del PM Expression vs control: 416%
F508del CFTR [1]; no co-corrector
  EC50: 809 nM
  % F508del PM Expression vs control: 264%
F508del CFTR [2]
  Band C (mature complex-glycosylated F508del CFTR): confirmed
F508del CFTR [3]; + 3 μM VX809
  % F508del PM Expression vs control: 415%
F508del CFTR [3]; no co-corrector
  EC50: 707 nM
  % F508del PM Expression vs control: 197%
